Molecular target: T1, C-X-C chemokine receptor type 3 (Homo sapiens, UniProt P49682)
T1 sequence (P49682 whole entry): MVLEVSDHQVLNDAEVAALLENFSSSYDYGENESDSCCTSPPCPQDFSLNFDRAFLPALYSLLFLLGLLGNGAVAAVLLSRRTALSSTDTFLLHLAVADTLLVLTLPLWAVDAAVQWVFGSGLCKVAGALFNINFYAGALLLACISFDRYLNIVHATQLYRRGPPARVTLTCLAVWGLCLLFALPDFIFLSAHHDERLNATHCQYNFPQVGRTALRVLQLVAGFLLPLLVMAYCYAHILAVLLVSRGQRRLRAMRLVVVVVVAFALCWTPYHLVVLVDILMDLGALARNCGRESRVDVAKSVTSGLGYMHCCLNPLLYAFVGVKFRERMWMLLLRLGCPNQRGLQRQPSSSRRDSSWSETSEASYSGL
Assay: Receptor Internalization Assay (RIA): Stock solutions of test compounds are made up at a concentration of 10 mM in DMSO, and serially diluted in PBS containing 0.5% BSA to concentrations required for inhibition dose response curves. Diluted compounds are then mixed with an equal volume of CXCL10 (Peprotech) diluted in PBS. Anticoagulated venous human whole blood is added to the mixture, which is then incubated in a CO2 incubator at 37° C. to allow for ligand mediated receptor internalization (final CXCL10 concentration is 9 nM). After 30 min, the blood is mixed with fluorescently labeled CXCR3 and CD4 specific antibodies (Becton Dickinson) and incubated on ice for 10 minutes. Samples are then mixed with BD FACS Lysing Solution (Becton Dickinson) in order to eliminate red blood cells. After washing the cells with PBS containing 0.5% BSA, the samples are then analyzed in a flow cytometer (FACS Canto II, Becton Dickinson). For data analysis using FACSDiva software (Becton Dickinson), the mean fluorescence corresponding to CXCR3 cell surface expression was determined on CD4 positive cells. The calculated IC50 values may fluctuate depending on the daily assay performance. Fluctuations of this kind are known to those skilled in the art. In the case where IC50 values have been determined several times for the same compound, mean values are given.

Row | SMILES | IC50 [nM]
1 | CC1CNCC(c2sc(C(F)(F)F)cc2-c2cnc(C(F)(F)F)nc2)N1C(=O)Cn1cnc(C(N)=O)n1 (centres undefined) | 1710
2 | CC1CNCC(c2sc(C(F)(F)F)cc2-c2cnc(C(F)(F)F)nc2)N1C(=O)Cn1cnc(C(C)(C)O)n1 (centres undefined) | 830
3 | CC(C)c1ncn(CC(=O)N2C(C)CNCC2c2sc(C(F)(F)F)cc2-c2cnc(C3CC3)nc2)n1 (centres undefined) | 524
4 | CC1CNCC(c2sc(C(F)(F)F)cc2-c2cnc(C(F)(F)F)nc2)N1C(=O)Cn1cnc(C(C)(C)C)n1 (centres undefined) | 349
5 | CCCc1ncn(CC(=O)N2C(C)CNCC2c2sc(C(F)(F)F)cc2-c2cnc(C(F)(F)F)nc2)n1 (centres undefined) | 221
6 | CCOc1ncc(-c2cc(C(F)(F)F)sc2C2CNCC(C)N2C(=O)Cn2cnc(C(C)(C)C)n2)cn1 (centres undefined) | 552
7 | CC1CNCC(c2sc(C(F)(F)F)cc2-c2cnc(C(F)(F)F)nc2)N1C(=O)Cn1cnc(CO)n1 (centres undefined) | 809
8 | CCOc1ncc(-c2cc(C(F)(F)F)sc2C2CNCC(C)N2C(=O)Cn2cnc(C(C)C)n2)cn1 (centres undefined) | 299
9 | CCc1ncn(CC(=O)N2C(C)CNCC2c2sc(C(F)(F)F)cc2-c2cnc(C(F)(F)F)nc2)n1 (centres undefined) | 148
10 | CCc1ncn(CC(=O)N2C(C)CNCC2c2sc(C(F)(F)F)cc2-c2cnc(C3CC3)nc2)n1 (centres undefined) | 190
11 | CCOc1ncc(-c2cc(C(F)(F)F)sc2C2CNCC(C)N2C(=O)Cn2cnc(C)n2)cn1 (centres undefined) | 211
12 | COCc1ncn(CC(=O)N2C(C)CNCC2c2sc(C(F)(F)F)cc2-c2cnc(C(F)(F)F)nc2)n1 (centres undefined) | 606
13 | Cc1ncn(CC(=O)N2C(C)CNCC2c2sc(C(F)(F)F)cc2-c2cnc(C3CC3)nc2)n1 (centres undefined) | 462
14 | CCOc1ncc(-c2cc(C(F)(F)F)sc2C2CNCC(C)N2C(=O)Cn2cnc(CC)n2)cn1 (centres undefined) | 235
15 | COCc1ncn(CC(=O)N2C(C)CNCC2c2sc(C(F)(F)F)cc2-c2cnc(C3CC3)nc2)n1 (centres undefined) | 1390
16 | CC1CNCC(c2sc(C(F)(F)F)cc2-c2cnc(C3CC3)nc2)N1C(=O)Cn1cnc(C(C)(C)C)n1 (centres undefined) | 679
17 | Cc1ncn(CC(=O)N2C(C)CNCC2c2sc(C(F)(F)F)cc2-c2cnc(C(F)(F)F)nc2)n1 (centres undefined) | 189
18 | CCOc1ncc(-c2cc(C(F)(F)F)sc2C2CNCC(C)N2C(=O)Cn2cnc(COC)n2)cn1 (centres undefined) | 950
19 | CC(C)c1ncn(CC(=O)N2C(C)CNCC2c2sc(C(F)(F)F)cc2-c2cnc(C(F)(F)F)nc2)n1 (centres undefined) | 174
